Values of other authors as cited in PubChem BioAssay AID1259409 (Chemical Carcinogenesis Research Information System (CCRIS), 2018).

System: rodent chemically induced tumor inhibition, incidence and multiplicity
Experiment: CCRIS tumor inhibitor studies
Conditions: Route [Inhibitor]: ORAL

O=C1O[C@H]([C@@H](O)CO)C(O)=C1O
tumour outcome (control, treated, inhibition, significance) (Carcinogen: 1,2-DIMETHYLHYDRAZINE DICHLORIDE, 306-37-6, Dose [Inhibitor]: 0, 0.3% SOLUTION IN DRINKING WATER BEGINNING 1 WK POST CARCINOGEN TREATMENT AND AND CONTINUING FOR DURATION OF STUDY (ST, Species: MOUSE, Strain/Sex: CBA/FEMALE, Target Tissue: Type of Lesion: UTERUS: SARCOMA, Dose [Carcinogen]: 8 MG/KG 1/WK FOR 8 WK, Promoter: ESTRADIOL DIPROPIONATE, 133-38-2): 25/40 (63%), 14/40 (35%), 44%, p<0.001
tumour outcome (control, treated, inhibition, significance) (Carcinogen: 1,2-DIMETHYLHYDRAZINE DICHLORIDE, 306-37-6, Dose [Inhibitor]: 0, 0.3% SOLUTION IN DRINKING WATER BEGINNING 1 WK POST CARCINOGEN TREATMENT AND CONTINUING FOR DURATION OF STUDY (STUDY, Species: MOUSE, Strain/Sex: CBA/FEMALE, Target Tissue: Type of Lesion: UTERUS: SARCOMA, Dose [Carcinogen]: 8 MG/KG 1/WK FOR 8 WK, Promoter: ESTRADIOL DIPROPIONATE, 133-38-2): 25/40 (63%), 24/32 (75%), -19%, not calculated
tumour outcome (control, treated, inhibition, significance) (Carcinogen: 1,2-DIMETHYLHYDRAZINE-DIHYDROCHLORIDE, 306-37-6, Dose [Inhibitor]: 25 MG/KG/D IN DIET STARTING AT TIME OF CARCINOGEN TREATMENT AND CONTINUING FOR 35 WK (STUDY DURATION: 35 WK), Species: MOUSE, Strain/Sex: CF-1/FEMALE, Target Tissue: Type of Lesion: LARGE BOWEL: GLANDULAR TUMORS, Dose [Carcinogen]: 20 MG/KG 1/WK FOR 24 WK, Promoter: NONE USED): 18/20 (90%), 19/22 (86%), 4%, not significant
tumour outcome (control, treated, inhibition, significance) (Carcinogen: 1,2-DIMETHYLHYDRAZINE-DIHYDROCHLORIDE, 306-37-6, Dose [Inhibitor]: 50 MG/KG/D IN DIET STARTING AT TIME OF CARCINOGEN TREATMENT AND CONTINUING FOR 35 WK (STUDY DURATION: 35 WK), Species: MOUSE, Strain/Sex: CF-1/FEMALE, Target Tissue: Type of Lesion: LARGE BOWEL: GLANDULAR TUMORS, Dose [Carcinogen]: 20 MG/KG, 1/WK FOR 24 WK, Promoter: NONE USED): 18/20 (90%), 20/20 (100%), -11%, not significant
tumour outcome (control, treated, inhibition, significance) (Carcinogen: 1,2-DIMETHYLHYDRAZINE-DIHYDROCHLORIDE, 306-37-6, Dose [Inhibitor]: 100 MG/KG/DAY IN DIET STARTING AT TIME OF CARCINOGEN TREATMENT AND CONTINUING FOR 35 WK (STUDY DURATION: 35 WK), Species: MOUSE, Strain/Sex: CF-1/FEMALE, Target Tissue: Type of Lesion: LARGE BOWEL: GLANDULAR TUMORS, Dose [Carcinogen]: 20 MG/KG 1/WK FOR 24 WK, Promoter: NONE USED): 18/20 (90%), 16/23 (70%), 22%, not significant
tumour outcome (control, treated, inhibition, significance) (Carcinogen: 1,2-DIMETHYLHYDRAZINE-DIHYDROCHLORIDE, 306-37-6, Dose [Inhibitor]: 200 MG/KG/DAY IN DIET STARTING AT TIME OF CARCINOGEN TREATMENT AND CONTINUING FOR 35 WK (STUDY DURATION: 35 WK), Species: MOUSE, Strain/Sex: CF-1/FEMALE, Target Tissue: Type of Lesion: LARGE BOWEL: GLANDULAR TUMORS, Dose [Carcinogen]: 20 MG/KG 1/WK FOR 24 WK, Promoter: NONE USED): 18/20 (90%), 19/23 (83%), 8%, not significant
tumour outcome (control, treated, inhibition, significance) (Carcinogen: 1,2-DIMETHYLHYDRAZINE, 540-73-8, Dose [Inhibitor]: 0, 0.02% IN DIET FOR 14 WK BEGINNING 3 D PRIOR TO CARCINOGEN TREATMENT (STUDY DURATION: 26 WK), Species: RAT, Strain/Sex: SPRAGUE-DAWLEY/MALE, Target Tissue: Type of Lesion: INTESTINE: CARCINOMA, Dose [Carcinogen]: 20 MG/KG BW 1/WK FOR 12 WK, Promoter: NONE USED): 23/28 (82%), 12/18 (67%), 18%, not significant
tumour outcome (control, treated, inhibition, significance) (Carcinogen: 1,2-DIMETHYLHYDRAZINE, 540-73-8, Dose [Inhibitor]: 0, 5% IN DIET BEGINNING 1 WK POST LAST CARCINOGEN DOSE AND CONTINUING FOR 36 WK (STUDY DURATION: 40 WK), Species: RAT, Strain/Sex: F344/MALE, Target Tissue: Type of Lesion: COLON: ADENOMA, Dose [Carcinogen]: 20 MG/KG 1/WK FOR 4 WK, Promoter: NONE USED): 1/20 (5%), 6/20 (30%), -500%, p<0.05
tumour outcome (control, treated, inhibition, significance) (Carcinogen: 1,2-DIMETHYLHYDRAZINE, 540-73-8, Dose [Inhibitor]: 0, 5% IN DIET BEGINNING 1 WK POST LAST CARCINOGEN DOSE AND CONTINUING FOR 36 WK (STUDY DURATION: 40 WK), Species: RAT, Strain/Sex: F344/MALE, Target Tissue: Type of Lesion: COLON: CARCINOMA, Dose [Carcinogen]: 20 MG/KG 1/WK FOR 4 WK, Promoter: NONE USED): 6/20 (30%), 7/20 (35%), -17%, not calculated
tumour outcome (control, treated, inhibition, significance) (Carcinogen: 1,2-DIMETHYLHYDRAZINE, 540-73-8, Dose [Inhibitor]: 0, 10 G/L IN DRINKING WATER FOR DURATION OF STUDY BEGINNING 7 D PRIOR TO CARCINOGEN TREATMENT (STUDY DURATION: 8 MO), Species: RAT, Strain/Sex: BD6/MALE, Target Tissue: Type of Lesion: INTESTINE: TUMOR, Dose [Carcinogen]: 20 MG/KG BW 1/WK FOR 20 WK, Promoter: NONE USED): 100%, 100%, 0%, not significant
tumour outcome (control, treated, inhibition, significance) (Carcinogen: 1,2-DIMETHYLHYDRAZINE, 540-73-8, Dose [Inhibitor]: 0.25% IN 20% FAT DIET DAILY STARTING 2 WK BEFORE CARCINOGEN TREATMENT AND CONTINUING FOR DURATION OF STUDY (STUDY DURATI, Species: RAT, Strain/Sex: F344/FEMALE, Target Tissue: Type of Lesion: COLON: ADENOMA, ADENOCARCINOMA, Dose [Carcinogen]: 150 MG/KG BW IN 0.9% SALINE ADJUSTED TO PH 6.8 ONCE, Promoter: NONE USED): 26%, 0%, 100%, p<0.05
tumour outcome (control, treated, inhibition, significance) (Carcinogen: 1,2-DIMETHYLHYDRAZINE, 540-73-8, Dose [Inhibitor]: 0.25% IN 20% FAT DIET DAILY STARTING 2 WK BEFORE CARCINOGEN TREATMENT AND CONTINUING FOR DURATION OF STUDY (STUDY DURATI, Species: RAT, Strain/Sex: F344/FEMALE, Target Tissue: Type of Lesion: KIDNEY: NEPHROBLASTOMA, ADENOCARCINOMA, Dose [Carcinogen]: 150 MG/KG BW IN 0.9% SALINE ADJUSTED TO PH 6.8 ONCE, Promoter: NONE USED): 22%, 4%, 82%, p<0.05
tumour outcome (control, treated, inhibition, significance) (Carcinogen: 1,2-DIMETHYLHYDRAZINE, 540-73-8, Dose [Inhibitor]: 0.3% IN DRINKING WATER BEGINNING AFTER LAST CARCINOGEN DOSE AND CONTINUING FOR DURATION OF STUDY (STUDY DURATION: 55 WK), Species: MOUSE, Strain/Sex: CBA/FEMALE, Target Tissue: Type of Lesion: UTERUS (ENDOMETRIUM): STROMAL SARCOMA, Dose [Carcinogen]: 8 MG/KG BW IN WATER 1/WK FOR 8 WK, Promoter: ESTRADIOL PROPIONATE, 113-38-2): 13/40 (33%), 13/30 (43%), -33%, not calculated
